# From publication PMC7251871, “Construction of reporter gene assays using CWP and PDR mutant yeasts for enhanced detection of various sex steroids” (Genes and Environment, 2020)
# Where “and” joins values, the source holds several entries; their conditions need not be identical. Identical values can stand only once. Like-named read-outs stand apart in the source and are kept apart here.
# Columns and labels:
# human ERβ [1] = molecular target: T1, human ERβ (Homo sapiens, UniProt Q92731); test: ERβ agonist yeast lacZ reporter gene assay; type: cell-based
# human PR [2] = molecular target: T2, human PR (Homo sapiens, UniProt P06401); test: PR agonist yeast lacZ reporter gene assay; conditions: for EC50: EC50, agonist assay
# T2 sequence (P06401 1-933): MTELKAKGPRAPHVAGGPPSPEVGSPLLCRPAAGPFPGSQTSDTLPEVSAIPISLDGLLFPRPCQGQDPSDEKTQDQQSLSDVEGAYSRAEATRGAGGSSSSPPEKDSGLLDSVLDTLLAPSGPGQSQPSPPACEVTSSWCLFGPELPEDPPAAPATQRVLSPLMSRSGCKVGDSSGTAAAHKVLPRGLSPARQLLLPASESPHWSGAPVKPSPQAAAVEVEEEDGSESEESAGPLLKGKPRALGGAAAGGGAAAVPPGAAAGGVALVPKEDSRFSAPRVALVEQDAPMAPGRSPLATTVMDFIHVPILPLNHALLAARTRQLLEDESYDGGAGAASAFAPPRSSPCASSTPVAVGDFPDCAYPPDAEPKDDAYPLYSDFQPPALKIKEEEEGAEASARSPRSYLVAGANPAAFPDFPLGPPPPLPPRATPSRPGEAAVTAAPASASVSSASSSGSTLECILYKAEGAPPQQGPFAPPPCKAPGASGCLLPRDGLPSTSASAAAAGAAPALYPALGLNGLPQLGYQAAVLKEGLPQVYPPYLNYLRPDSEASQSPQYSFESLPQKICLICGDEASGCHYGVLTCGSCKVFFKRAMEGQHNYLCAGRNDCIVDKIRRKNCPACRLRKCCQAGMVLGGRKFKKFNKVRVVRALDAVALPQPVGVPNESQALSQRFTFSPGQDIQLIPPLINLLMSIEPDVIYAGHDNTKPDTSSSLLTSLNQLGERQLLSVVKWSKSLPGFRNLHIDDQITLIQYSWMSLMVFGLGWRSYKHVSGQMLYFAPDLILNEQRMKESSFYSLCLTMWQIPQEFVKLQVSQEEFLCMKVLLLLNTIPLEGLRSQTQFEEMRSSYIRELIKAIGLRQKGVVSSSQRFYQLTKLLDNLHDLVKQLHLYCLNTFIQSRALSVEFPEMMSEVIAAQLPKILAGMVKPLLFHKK
# human AR [3] = molecular target: T3, human AR (Homo sapiens, UniProt P10275); test: AR agonist yeast lacZ reporter gene assay; type: cell-based
# T3 sequence (P10275 1-920): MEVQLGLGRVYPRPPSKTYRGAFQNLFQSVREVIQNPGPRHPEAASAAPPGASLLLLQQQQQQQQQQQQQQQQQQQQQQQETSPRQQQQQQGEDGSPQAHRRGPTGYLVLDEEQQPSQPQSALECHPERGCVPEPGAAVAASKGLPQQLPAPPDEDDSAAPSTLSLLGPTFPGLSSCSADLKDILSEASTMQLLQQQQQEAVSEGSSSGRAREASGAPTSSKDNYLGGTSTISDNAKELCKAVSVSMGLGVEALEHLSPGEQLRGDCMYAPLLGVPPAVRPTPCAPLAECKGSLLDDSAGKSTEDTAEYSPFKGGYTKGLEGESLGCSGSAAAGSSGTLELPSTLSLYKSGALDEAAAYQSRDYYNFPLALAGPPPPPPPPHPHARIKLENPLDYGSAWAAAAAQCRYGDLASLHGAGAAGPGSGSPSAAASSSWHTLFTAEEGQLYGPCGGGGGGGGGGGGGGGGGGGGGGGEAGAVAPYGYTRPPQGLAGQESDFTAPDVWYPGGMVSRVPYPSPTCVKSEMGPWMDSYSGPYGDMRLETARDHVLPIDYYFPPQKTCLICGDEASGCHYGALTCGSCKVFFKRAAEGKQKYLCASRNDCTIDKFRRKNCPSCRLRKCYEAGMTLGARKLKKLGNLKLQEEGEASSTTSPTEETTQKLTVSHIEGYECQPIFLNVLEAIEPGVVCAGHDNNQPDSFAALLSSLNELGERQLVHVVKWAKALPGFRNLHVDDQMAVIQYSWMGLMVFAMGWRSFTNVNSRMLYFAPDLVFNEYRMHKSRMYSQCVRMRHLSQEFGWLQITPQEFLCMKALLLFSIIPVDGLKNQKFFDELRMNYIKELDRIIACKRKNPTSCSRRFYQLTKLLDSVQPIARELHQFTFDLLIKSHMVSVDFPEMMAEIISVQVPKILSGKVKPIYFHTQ
# human AR [4] = molecular target: T3, human AR; test: AR antagonist yeast reporter gene assay (competition with testosterone at EC50); type: cell-based; conditions: with testosterone […] nM
# human ERα = molecular target: T4, human ERα (Homo sapiens, UniProt P03372); test: ERα agonist yeast lacZ reporter gene assay; type: cell-based; conditions: strain cwp1Δcwp2Δ
# T4 sequence (P03372 1-595): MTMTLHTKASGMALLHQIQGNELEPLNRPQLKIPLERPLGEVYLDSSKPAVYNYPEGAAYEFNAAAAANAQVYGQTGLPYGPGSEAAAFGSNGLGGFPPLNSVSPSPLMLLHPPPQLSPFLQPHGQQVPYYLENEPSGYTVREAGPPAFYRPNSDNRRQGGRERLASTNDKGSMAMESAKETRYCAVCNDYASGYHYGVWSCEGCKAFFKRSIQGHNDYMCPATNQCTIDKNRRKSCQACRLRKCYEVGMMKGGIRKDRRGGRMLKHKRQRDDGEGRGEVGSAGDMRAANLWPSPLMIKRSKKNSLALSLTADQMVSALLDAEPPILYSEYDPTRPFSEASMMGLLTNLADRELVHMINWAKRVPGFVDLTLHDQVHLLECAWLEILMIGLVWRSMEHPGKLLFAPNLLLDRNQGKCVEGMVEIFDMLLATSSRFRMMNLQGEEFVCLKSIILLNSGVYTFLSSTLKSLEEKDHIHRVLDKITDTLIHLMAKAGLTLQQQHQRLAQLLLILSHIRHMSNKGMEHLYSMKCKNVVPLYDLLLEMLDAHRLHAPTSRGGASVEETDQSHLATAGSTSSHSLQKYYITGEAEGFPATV
# human ERβ [5] = molecular target: T1, human ERβ; test: ERβ antagonist yeast reporter gene assay (competition with E2 at EC50); conditions: co-exposure with E2; data not shown
# human PR [6] = molecular target: T2, human PR; test: PR antagonist yeast reporter gene assay (competition with PS at EC50); type: cell-based; conditions: strain cwp1Δpdr5Δ
# [7] = agonist assay, strain W303a, read-out: EC50
# [8] = agonist assay, strain cwp1Δcwp2Δ, read-out: EC50
# T1 sequence (Q92731 whole entry): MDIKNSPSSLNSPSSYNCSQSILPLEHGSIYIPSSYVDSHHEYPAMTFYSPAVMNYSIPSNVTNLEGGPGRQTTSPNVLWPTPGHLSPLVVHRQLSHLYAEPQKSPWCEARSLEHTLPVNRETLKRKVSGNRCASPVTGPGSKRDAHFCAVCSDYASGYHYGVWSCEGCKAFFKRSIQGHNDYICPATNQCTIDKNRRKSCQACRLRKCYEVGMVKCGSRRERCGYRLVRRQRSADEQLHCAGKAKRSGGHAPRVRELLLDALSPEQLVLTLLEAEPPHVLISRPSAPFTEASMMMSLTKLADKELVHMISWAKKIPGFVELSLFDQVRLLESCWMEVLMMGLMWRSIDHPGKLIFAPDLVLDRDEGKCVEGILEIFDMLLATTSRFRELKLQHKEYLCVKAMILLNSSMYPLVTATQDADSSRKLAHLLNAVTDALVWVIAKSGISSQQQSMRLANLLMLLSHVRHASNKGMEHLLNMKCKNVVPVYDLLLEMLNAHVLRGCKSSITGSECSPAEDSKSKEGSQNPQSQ
compound,measurement,setting,value
"C[C@]12CC[C@H]3[C@@H](CCC4=CC(=O)CC[C@@]43C)[C@@H]1CC[C@@H]2O [TS, Testosterone]",EC50,"human ERβ [1]; EC50, agonist assay, strain cwp1Δcwp2Δ",870 nM
same,EC50,human PR [2]; strain cwp1Δcwp2Δ,29000 nM
same,EC50,human PR [2]; strain cwp1Δpdr5Δ,31000 nM
"C[C@]12CCC3=C4CCC(=O)C=C4CC[C@H]3[C@@H]1CC[C@@]2(O)CC#N [DNG, Dienogest]","androgenic activity, fold weaker than earlier generation progestins with respect to minimal detection limit concentration",human AR [3]; AR-expressing mutant yeast strains,100 fold
same,EC50,human AR [3]; [7],9780 nM
same,EC50,"human AR [3]; agonist assay, strain cwp1Δpdr5Δ, read-out: EC50",8100 nM
same,EC50,"human AR [3]; agonist assay, strain pdr5Δpdr10Δ, read-out: EC50",2430 nM
same,IC50,human AR [4]; strain cwp1Δpdr5Δ,38100 nM
same,IC50,human AR [4]; strain pdr5Δpdr10Δ,30200 nM
same,constitutive expression of β-gal in reference CYC strains,CYC yeast strains,Neither DNG nor DRSP inhibited
same,EC50,human PR [2]; strain cwp1Δcwp2Δ,6100 nM
same,EC50,human PR [2]; strain cwp1Δpdr5Δ,860 nM
"CCCc1c(-c2ccc(O)cc2)nn(-c2ccc(O)cc2)c1-c1ccc(O)cc1 [PPT, propyl pyrazole triol]",fold lower EC50 value for ERα than ERβ,human ERα,2.5 fold
same,fold lower minimum detection limit for ERα than ERβ,human ERα,10 fold
same,EC50,human ERβ [1]; read-out: EC50,13700 nM and 2340 nM
"C[C@H]1CCC[C@H](O)CCCCCc2cc(O)cc(O)c2C(=O)O1 [Zer, zeranol]",constitutive expression of β-gal in reference CYC strains,CYC yeast strains; CYC W303a and corresponding CYC mutant strains,not affected
"C[C@]12C[C@H](O)[C@H]3[C@@H](CCC4=CC(=O)CC[C@@]43C)[C@@H]1CC[C@@H]2C(=O)CO [CS, corticosterone]",EC50,human PR [2]; strain cwp1Δcwp2Δ,20100 nM
same,EC50,human PR [2]; strain cwp1Δpdr5Δ,18300 nM
"C[C@]12CCC(=O)C=C1[C@@H]1C[C@@H]1[C@H]1[C@@H]3[C@@H]4C[C@@H]4[C@@]4(CCC(=O)O4)[C@@]3(C)CC[C@@H]12 [DRSP, drospirenone]",constitutive expression of β-gal in reference CYC strains,CYC yeast strains,Neither DNG nor DRSP inhibited
"C[C@]12CC[C@@H]3c4ccc(O)cc4CC[C@H]3[C@@H]1CCC2=O [E1, estrone]",EC50,human AR [3]; EC50,900 nM and 860 nM and 96 nM
"Cc1c(-c2ccc(O)cc2)nn(-c2ccc(O)cc2)c1-c1ccc(OCCN2CCCCC2)cc1.Cl.Cl [MPP, methyl-piperidino-pyrazoledihydrochloride hydrate]",EC50,human ERβ [1]; [7],19200 nM
same,EC50,human ERβ [1]; [8],2730 nM
same,antagonistic activity,human ERβ [5],undetectable
"C[C@]12CCC(=O)C=C1CC[C@@H]1[C@@H]2[C@@H](O)C[C@]2(C=O)[C@@H](C(=O)CO)CC[C@@H]12 [AS, aldosterone]",EC50,human PR [2]; strain cwp1Δpdr5Δ,9700 nM
"CC(C)C(=O)Nc1ccc([N+](=O)[O-])c(C(F)(F)F)c1 [Flu, flutamide]",constitutive expression of β-gal in reference CYC strains,CYC yeast strains,not affected
"CC(=O)S[C@@H]1CC2=CC(=O)CC[C@]2(C)[C@H]2CC[C@@]3(C)[C@@H](CC[C@@]34CCC(=O)O4)[C@H]12 [Spi, spironolactone]",Maximum inhibition,human PR [6],34.0%
same,constitutive expression of β-gal in reference CYC strains,CYC yeast strains,not affected
"C[C@]12CC[C@@H]3c4ccc(O)cc4CC[C@H]3[C@@H]1C[C@@H](O)[C@@H]2O [E3, estriol]",EC50,human ERβ [1]; [7],34 nM
same,EC50,human ERβ [1]; [8],1.22 nM
same,Detection limit,human ERβ [1]; strain W303a,0.1 µM
same,Detection limit,human ERβ [1]; strain cwp1Δcwp2Δ,10^−4 μM
"CC#C[C@]1(O)CC[C@H]2[C@@H]3CCC4=CC(=O)CCC4=C3[C@@H](c3ccc(N(C)C)cc3)C[C@@]21C [Mif, mifepristone]",constitutive expression of β-gal in reference CYC strains,CYC yeast strains,not affected
"C[C@]12CC[C@@H]3c4ccc(O)cc4C[C@@H](CCCCCCCCC[S+]([O-])CCCC(F)(F)C(F)(F)F)[C@H]3[C@@H]1CC[C@@H]2O (some centres unmarked) [ICI, ICI 182, 780]",constitutive β-gal expression in control CYC strains,CYC yeast strains,not repressed
"CC(=O)[C@H]1CC[C@H]2[C@@H]3CCC4=CC(=O)CC[C@]4(C)[C@H]3CC[C@]12C [PS, progesterone]",Detection limit,human PR [2]; strain W303a,10 µM
same,Detection limit,human PR [2]; strain cwp1Δcwp2Δ,0.01 µM
same,Detection limit,human PR [2]; strain cwp1Δpdr5Δ,0.01 µM
"C#C[C@]1(O)C=C[C@H]2[C@@H]3CCC4=CC(=O)CC[C@@H]4[C@H]3CC[C@@]21CC [GTD, gestodene]","androgenic activity, fold weaker than earlier generation progestins with respect to minimal detection limit concentration",human AR [3],10 fold
same,EC50,human AR [3]; EC50,1060 nM and 400 nM
same,EC50,human PR [2]; strain W303a,220 nM
same,EC50,human PR [2]; strain cwp1Δpdr5Δ,0.996 nM
"CC/C(=C(\c1ccccc1)c1ccc(OCCN(C)C)cc1)c1ccccc1 [Tam, tamoxifen]",constitutive β-gal expression in control CYC yeasts,CYC yeast strains; 100 μM,less than 60%
